This passage reports IC50 results from publication PMC6332289, “Anti-Oxidant, Anti-Aging, and Anti-Melanogenic Properties of the Essential Oils from Two Varieties of Alpinia zerumbet” (Molecules, 2015).

The assay concerns the target T1, Clostridium histolyticum collagenase (ChC).
T1 construct: gene colG; commercial collagenase from Sigma-Aldrich
The assay can be described thus: FALGPA hydrolysis, absorbance at […] nm. It counts as biochemical, Hathewaya histolytica. The settings on record: 50 mM tricine, 400 mM NaCl, 10 mM CaCl2, pH 7.5; 0.8 mM FALGPA; 15 min preincubation.

Values after ≈ are worked out from the molar mass of the structure shown.

As to `CC1(C)CC[C@]2(C(=O)O)CC[C@]3(C)C(=CC[C@@H]4[C@@]5(C)CC[C@H](O)C(C)(C)[C@@H]5CC[C@]43C)[C@@H]2C1` [oleanolic acid], the IC50 was determined as 21 ± 0.2 µg/mL (≈ 46 µM).
